Results published in US8815249B2 (priority 1999, dated 2014).
Where two headings read alike, the source gives them in different places. Non-standard residues stand in square brackets, D forms with d. Ava = NCCCCC(=O)O

Tests used:
[1] = test system: splenic T cells; type: in vivo; conditions: C3H/HeJ mice, spleen cells day 35 re-stimulated with HIV gp160(843-855) peptide, triplicate wells
Description: An ELISPOT assay for IFN-γ cytokine responses was performed in order to titer more exactly splenic T lymphocyte subset responses to immunization with Ii-Key-ava-gp160(843-855) or gp160(843-855). The assay was performed as follows. A solution of the cytokine-specific capture antibody (100 μl at 6 μg/ml in phosphate-buffered saline solution, pH 7.2) was added to each well of a 96-well Immunospot plate (M200) for an overnight incubation at 4° C. After aspiration, phosphate-buffer saline solution 200 μl containing 10% fetal bovine serum and 1% penicillin-streptomycin-glutamine (mouse medium) was added to each well for 2 hr at RT. After washing four times with 1% Tween-20 in phosphate-buffered saline solution (wash buffer I), 100 μl of single cell suspensions from the spleens of immunized mice at 10^6 cells/well were re-stimulated with 100 μl of peptide-epitope at 5 μg/well in mouse medium and incubated for 20-40 hr at 37° C., 5% CO2. After washing twice with phosphate-buffered saline solution (wash buffer II) and four times with wash buffer I, 100 μl of 2 ÿg/ml biotinylated anti-mouse IFN-γ in 1× phosphate buffer saline with 10% fetal bovine serum (dilution buffer) was added to each well for 2 hr at RT. After washing five times with wash buffer I, 100 il of streptavidin-horse radish peroxidase conjugate (1:500) in dilution buffer was added to each well for 1 hr at RT. After washing four times with wash buffer I and two times with wash buffer II, 100 μl of the 3-amino-9-ethylcarbazole/H2O2 substrate (Pharmingen 551951) was added and incubated for 30-60 min in the dark at RT. The reaction was stopped by washing three times with 200 μl of deionized water. ELISPOT data analysis was performed by using the Immunospot 1.7e software ([…]). […] Additional counting parameters for spot size and circularity were applied to gate out speckles caused by non-specific antibody binding. Each spot represents a single cell secreting IFN-γ.
C3H/HeJ(H-2^k) mice were immunized with 40 nmole of peptides (50 μl) emulsified with equal volume of incomplete Freund's adjuvant (IFA), subcutaneously at the base of the tail. On day 13 the mice were boosted subcutaneously at the base of the tail with 40 nmole of peptides (50 μl) emulsified with equal amount of incomplete Freund's adjuvant (IFA). On day 31, the mice were boosted intravenously with 40 nmole peptides dissolved in 100 μl Hank's balanced salts solution (HBSS). On day 35, the mice were sacrificed and single cell suspensions from spleens were assayed for IFN-γ responses to HIV gp160(843-855) peptide.
Number is the mean number of spots (and standard deviation) in triplicate wells and Size is the mean spot size in mm^2 (and standard deviation). Ii-Key/gp160(844-855) has one ava spacer (Ii-key-ava-gp160(844-855)).

[2] = test system: splenic T cells; parameters: species or system B10(A) 5R mice; conditions: mouse, in vivo
[3] = test system: HIV gp160(843-855) peptide; type: in vivo; conditions: B10.A (5R) mice, peptides in saline solution, serum day 35
Description: An ELISA assay for antibody responses following immunization with the experimental peptides indicated above was performed as follows. Fifty microliters (μl) of a solution of the coating peptide at 2 μg/well in 0.1 M carbonate buffer, pH 9.5 was added to each well of a 96-well Nunc-immunoplate (#442404) for an overnight incubation at 4° C. After aspiration, 250 μl of phosphate-buffer saline solution containing 3% fetal bovine serum (assay diluent) was added to each well for 2 hr at RT. After washing three times with assay diluent, 50 μl of 20-times diluted mouse serum in 1:3 serial dilution in assay diluent was added to each well for 2 hr at RT. After washing three times with assay diluent, 50 μl of 1 ÿg/ml biotinylated goat anti-mouse IgG1 or IgG2a was added to each well and incubated for 1 hr at RT. After washing three times with assay diluent, 50 μl of streptavidin-horse radish peroxidase conjugate (1:1000) was added to each well and incubated for 30 min at RT. After washing three times with assay diluent, 100 μl of tetramethylbenzidine/H2O2 solution (Pharmingen 264KK) was added to each well for 15 min in the dark at room temperature. The reaction was stopped with 100 μl 1N H2SO4 in each well and the absorbance was read immediately at 450 nm.
B10.A (5R) mice (H-2^k/b) were immunized with 20 nmole of peptides in 50 μl phosphate-buffered saline solution, intramuscularly in right and left rear legs on days 1 and 2, respectively. On day 14 the mice were boosted intramuscularly with 40 nmole of peptides in 200 μl Hank's balanced salts solution intramuscularly in a rear leg. On day 30 the mice were boosted intravenously with 40 nmole peptides dissolved in Hank's balanced salts solution (HBSS). On day 35 the mice were sacrificed and serum samples were assayed for antibody titers against the HIV gp160(843-855) peptide.

[4] = test system: tumor cells expressing CEA; conditions: cited from earlier work
[5] = test system: MHC Class II molecules; conditions: cited from earlier work

Ac-LRMK-AYRAIRHIPR-NH2 (Ac-LRMKAYRAIRHIPR-NH2) [gp160(843-855)]
Number (mean number of IFN-γ ELISPOT spots and standard deviation) [1]: 5 (+/−3.6) | Size (mean spot size and standard deviation) [1]: 0.019 (+/−0.01) mm^2 | Percentage of cells CD3^+/IFN-γ^+ [2]: 2.05% | Percentage of cells CD4^+ [2]: 31.03% | Percentage of cells CD4^+/IFN-γ^+ [2]: 0.94% | Antibody induction, ELISA against HIV gp160(843-855) peptide ([3]; Dilution^−1 20): 0.052 | Antibody induction, ELISA against HIV gp160(843-855) peptide ([3]; Dilution^−1 60): 0.023 | Antibody induction, ELISA against HIV gp160(843-855) peptide ([3]; Dilution^−1 180): 0.000 | Antibody induction, ELISA against HIV gp160(843-855) peptide ([3]; Dilution^−1 540): −0.005

Ac-LRMK-ava-YRAIRHIPR-NH2 (Ac-LRMK[Ava]YRAIRHIPR-NH2; SMILES CC[C@H](C)[C@H](NC(=O)[C@H](C)NC(=O)[C@H](CCCNC(=N)N)NC(=O)[C@H](Cc1ccc(O)cc1)NC(=O)CCCCNC(=O)[C@H](CCCCN)NC(=O)[C@H](CCSC)NC(=O)[C@H](CCCNC(=N)N)NC(=O)[C@H](CC(C)C)NC(C)=O)C(=O)N[C@@H](CCCNC(=N)N)C(=O)N[C@@H](Cc1c[nH]cn1)C(=O)N[C@H](C(=O)N1CCC[C@H]1C(=O)N[C@@H](CCCNC(=N)N)C(N)=O)[C@@H](C)CC) [Ii-Key/one-ava/gp160(844-855)]
Number (mean number of IFN-γ ELISPOT spots and standard deviation) [1]: 59 (+/−5) | Size (mean spot size and standard deviation) [1]: 0.028 (+/−0.006) mm^2

HLFYSWYK [9.5.6]
CTL induction [4]: elicited CTL lines that lysed tumor cells

LRMK
activity of Ii-Key peptides in presentation of antigenic peptides [5]: half-maximal activity

LRMKLPK (printed: Leu-Arg-Met-Lys-Leu-Pro-Lys)
activity of Ii-Key peptides in presentation of antigenic peptides [5]: significantly greater activity

LRMKLPKPPKPVSQMR [Ii(77-92)]
activity of Ii-Key peptides in presentation of antigenic peptides [5]: enhanced presentation of antigenic peptides

QYSWFVNGTF [9.5.4]
CTL induction [4]: elicited CTL lines that lysed tumor cells
